# Molecular target: Mcl-1 protein (UniProtKB Q07820) (Homo sapiens (Human), UniProt Q07820)
# Assay: Inhibition of Mcl-1 by the fluorescence polarisation assay (Example A, Method A)
# Format: binding
# Conditions: fluorescence polarization assay
# Procedure, shortened: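 Protein (5 nM) and fluorescein-tagged peptide tracer (1 nM) incubated with 11-point compound series for 2 h at room temperature in HEPES/NaCl/Tween 20 buffer, pH 7.4, 5% DMSO. Displacement read as decrease in polarisation; IC50 fitted by 4-parameter logistic, converted to Ki (cKi or eKi).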
# Mcl-1 protein, sequence (Q07820 whole entry): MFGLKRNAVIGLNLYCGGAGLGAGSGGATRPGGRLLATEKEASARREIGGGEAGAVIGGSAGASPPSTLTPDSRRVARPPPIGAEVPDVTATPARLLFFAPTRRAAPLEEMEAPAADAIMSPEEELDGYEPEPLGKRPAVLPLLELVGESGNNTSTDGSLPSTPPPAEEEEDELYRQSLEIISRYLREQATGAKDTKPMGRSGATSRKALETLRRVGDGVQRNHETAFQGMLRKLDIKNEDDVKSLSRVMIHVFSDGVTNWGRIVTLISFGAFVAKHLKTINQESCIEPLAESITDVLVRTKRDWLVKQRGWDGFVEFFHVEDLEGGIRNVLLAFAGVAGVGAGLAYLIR
row,Ki,Structure (SMILES)
1,0.544 µM,"O=C(O)[C@]1(Nc2cccc(Cl)c2)CC[C@]2(CC1)C(c1ccc(Oc3cccnc3)cc1)=Cc1ccccc12 [Example 351, (1s,4s)-4-(3-chloroanilino)-2′-{4-[(pyridin-3-yl)oxy]phenyl}spiro[cyclohexane-1,1′-indene]-4-carboxylic acid]"
2,7.14 µM,"O=C(O)[C@]1(Nc2cccc(Cl)c2)CC[C@@]2(CC1)c1ccccc1CC2c1ccccc1 (single isomer, unassigned) [Example 327, (1r,4r)-4-(3-chloroanilino)-2′-phenyl-2′,3′-dihydrospiro[cyclohexane-1,1′-indene]-4-carboxylic acid]"
3,0.0514 µM,"O=C(O)[C@]1(Nc2cccc(Cl)c2)CC[C@]2(CC1)C(CCOc1ccccc1)=Cc1ccccc12 [Example 171, (1r,4r)-4-(3-chloroanilino)-2′-(2-phenoxyethyl)spiro[cyclohexane-1,1′-indene]-4-carboxylic acid]"
4,11.6 µM,"COc1ccc(C2Cc3ccccc3[C@]23CC[C@@](Nc2cccc(Cl)c2)(C(=O)O)CC3)c(C)c1 (single isomer, unassigned) [Example 255, (1r,4r)-4-(3-chloroanilino)-2′-(4-methoxy-2-methylphenyl)-2′,3′-dihydrospiro[cyclohexane-1,1′-indene]-4-carboxylic acid]"
5,4.79 µM,"O=C(O)[C@]1(Nc2cccc(Cl)c2)CC[C@]2(CC1)C(c1cc3cc(-c4ccncc4)ccc3o1)=Cc1ccccc12 [Example 375, (1s,4s)-4-(3-chloroanilino)-2′-[5-(pyridin-4-yl)-1-benzofuran-2-yl]spiro[cyclohexane-1,1′-indene]-4-carboxylic acid]"
6,1.19 µM,"COc1ccc(C2=Cc3ccccc3[C@]23CC[C@@](Nc2cccc(Cl)c2)(C(=O)O)CC3)cc1Cl [Example 227, (1s,4s)-4-(3-chloroanilino)-2′-(3-chloro-4-methoxyphenyl)spiro[cyclohexane-1,1′-indene]-4-carboxylic acid]"
7,0.781 µM,"O=C(O)[C@]1(Nc2cccc(Cl)c2)CC[C@@]2(CC1)c1ccccc1CC2CCCOc1cncnc1 (stereo partly shown) [Example 450, (1r,4r)-4-(3-chloroanilino)-2′-{3-[(pyrimidin-5-yl)oxy]propyl}-2′,3′-dihydrospiro[cyclohexane-1,1′-indene]-4-carboxylic acid]"
8,0.846 µM,"O=C(O)[C@]1(Nc2cccc(Cl)c2)CC[C@]2(CC1)C(CCCc1ccc(Cl)cc1)=Cc1ccccc12 [Example 157, (1r,4r)-4-(3-chloroanilino)-2′-[3-(4-chlorophenyl)propyl]spiro[cyclohexane-1,1′-indene]-4-carboxylic acid]"
9,0.134 µM,"O=C(O)[C@]1(Nc2cccc(Cl)c2)CC[C@@]2(CC1)c1ccccc1CC2CCCCc1ccccc1 (stereo partly shown) [Example 394, (1r,4r)-4-(3-chloroanilino)-2′-(4-phenylbutyl)-2′,3′-dihydrospiro[cyclohexane-1,1′-indene]-4-carboxylic acid]"
10,0.0959 µM,"O=C(O)[C@]1(Nc2cccc(Cl)c2)CC[C@]2(CC1)C(CCCOc1ccccc1)=Cc1ccccc12 [Example 422, (1r,4r)-4-(3-chloroanilino)-2′-(3-phenoxypropyl)spiro[cyclohexane-1,1′-indene]-4-carboxylic acid]"
11,0.443 µM,"O=C(O)[C@]1(Nc2cccc(Cl)c2)CC[C@@]2(CC1)c1ccccc1CC2c1ccc(Oc2cccnc2)cc1 (stereo partly shown) [Example 367, (1r,4r)-4-(3-chloroanilino)-2′-{4-[(pyridin-3-yl)oxy]phenyl}-2′,3′-dihydrospiro[cyclohexane-1,1′-indene]-4-carboxylic acid]"
12,87.3 µM,"Cn1cc(C2Cc3ccccc3[C@]23CC[C@](Nc2cccc(Br)c2)(C(=O)O)CC3)cn1 (stereo partly shown) [Example 213, (1s,4s)-4-(3-bromoanilino)-2′-(1-methyl-1H-pyrazol-4-yl)-2′,3′-dihydrospiro[cyclohexane-1,1′-indene]-4-carboxylic acid]"
13,0.318 µM,"Cc1n[nH]c2cccc(OCCCC3Cc4ccccc4[C@]34CC[C@@](Nc3cccc(Cl)c3)(C(=O)O)CC4)c12 (mixture of isomers) [Example 453, (1r,4r)-4-(3-chloroanilino)-2′-{3-[(3-methyl-1H-indazol-4-yl)oxy]propyl}-2′,3′-dihydrospiro[cyclohexane-1,1′-indene]-4-carboxylic acid]"
14,1.11 µM,"O=C(O)[C@]1(Nc2cccc(Cl)c2)CC[C@]2(CC1)C(c1ccc(Cl)cc1)=Cc1ccccc12 [Example 298, (1s,4s)-4-(3-chloroanilino)-2′-(4-chlorophenyl)spiro[cyclohexane-1,1′-indene]-4-carboxylic acid]"
15,0.138 µM,"O=C(O)[C@]1(Nc2cccc(Cl)c2)CC[C@@]2(CC1)c1ccccc1CC2CCCOc1ccccc1Cl (stereo partly shown) [Example 431, (1r,4r)-4-(3-chloroanilino)-2′-[3-(2-chlorophenoxy)propyl]-2′,3′-dihydrospiro[cyclohexane-1,1′-indene]-4-carboxylic acid]"
16,0.6 µM,"O=C(O)[C@]1(Nc2cccc(Br)c2)CC[C@@]2(CC1)c1ccccc1CC2CCc1cccnc1 (stereo partly shown) [Example 164, (1r,4r)-4-(3-bromoanilino)-2′-[2-(pyridin-3-yl)ethyl]-2′,3′-dihydrospiro[cyclohexane-1,1′-indene]-4-carboxylic acid]"

# The remaining lines, values behind:
row,Structure (SMILES),Ki
1,"COc1ccc2c(c1)[C@]1(CC[C@](Nc3cccc(Br)c3)(C(=O)O)CC1)C(Cc1ccccc1)C2 (stereo partly shown) [Example 126, (1s,4s)-2′-benzyl-4-(3-bromoanilino)-6′-methoxy-2′,3′-dihydrospiro[cyclohexane-1,1′-indene]-4-carboxylic acid]",9.15 µM
2,"O=C(O)[C@]1(Nc2cccc(Cl)c2)CC[C@@]2(CC1)c1ccccc1C[C@H]2C1CCC1 [Example 100, (1r,2′S,4S)-4-(3-chloroanilino)-2′-cyclobutyl-2′,3′-dihydrospiro[cyclohexane-1,1′-indene]-4-carboxylic acid]",2.62 µM
3,"O=C(O)[C@]1(Nc2cccc(Cl)c2)CC[C@]2(CC1)C(C1CN(Cc3ccncc3)C1)=Cc1ccccc12 [Example 98, (1r,4r)-4-(3-chloroanilino)-2′-{1-[(pyridin-4-yl)methyl]azetidin-3-yl}spiro[cyclohexane-1,1′-indene]-4-carboxylic acid]",10.4 µM
4,"O=C(O)[C@]1(Nc2cccc(Cl)c2)CC[C@]2(CC1)C(C1CN(CC(F)(F)F)C1)=Cc1ccccc12 [Example 102, (1r,4r)-4-(3-chloroanilino)-2′-[1-(2,2,2-trifluoroethyl)azetidin-3-yl]spiro[cyclohexane-1,1′-indene]-4-carboxylic acid]",10.7 µM
5,"COc1ccc2c(c1)[C@]1(CC[C@@](Nc3cccc(Br)c3)(C(=O)O)CC1)C1(CCCC1)C2 [Example 95, (1r,4r)-4-(3-bromoanilino)-6′-methoxy-3′H-dispiro[cyclohexane-1,1′-indene-2′,1″-cyclopentane]-4-carboxylic acid]",1.19 µM
6,"C/C=C/c1ccc2c(c1)[C@]1(CC[C@](Nc3cccc(Br)c3)(C(=O)O)CC1)C(=O)N2C [Example 12, (1r,4r)-4-(3-bromoanilino)-1′-methyl-2′-oxo-5′-[(1E)-prop-1-en-1-yl]-1′,2′-dihydrospiro[cyclohexane-1,3′-indole]-4-carboxylic acid]",12.4 µM
7,"CCc1ccc2c(c1)[C@]1(CC[C@](Nc3cccc(Br)c3)(C(=O)O)CC1)C(=O)N2C [Example 8, (1r,4r)-4-(3-bromoanilino)-5′-ethyl-1′-methyl-2′-oxo-1′,2′-dihydrospiro[cyclohexane-1,3′-indole]-4-carboxylic acid]",22.5 µM
8,"O=C(O)[C@]1(Nc2cccc(Cl)c2)CC[C@@]2(CC1)c1ccccc1[C@@H]1C[C@@H]12 (single isomer, unassigned) [Example 107, (1r,1′aR*,4r,6′aS*)-4-(3-chloroanilino)-1′a,6′a-dihydro-1′H-spiro[cyclohexane-1,6′-cyclopropa[a]indene]-4-carboxylic acid]",1.87 µM
9,"O=C(O)[C@]1(Nc2cccc(Cl)c2)CC[C@]2(C=Cc3ccccc32)CC1 [Example 65, (1s,4s)-4-(3-chloroanilino)spiro[cyclohexane-1,1′-indene]-4-carboxylic acid]",4.99 µM
10,"O=C(O)[C@]1(Nc2cccc(Cl)c2)CC[C@@]2(CC1)c1ccccc1CC2[C@H]1C[C@@H]1COc1ccnc2ccsc12 (single isomer, unassigned) [Example 103, (1r,4r)-4-(3-chloroanilino)-2′-[(1R*,2S*)-2-{[(thieno[3,2-b]pyridin-7-yl)oxy]methyl}cyclopropyl]-2′,3′-dihydrospiro[cyclohexane-1,1′-indene]-4-carboxylic acid]",0.214 µM
11,"C[C@@H](COc1ccnc(N)c1)C[C@H]1Cc2ccccc2[C@]12CC[C@@](Nc1cccc(Cl)c1)(C(=O)O)CC2 [Example 583, (1r,2′S,4S)-2′-{(2R)-3-[(2-aminopyridin-4-yl)oxy]-2-methylpropyl}-4-(3-chloroanilino)-2′,3′-dihydrospiro[cclohexane-1,1′-indene]-4-carboxylic acid]",0.191 µM
12,"O=C(O)[C@]1(Nc2cccc(Cl)c2)CC[C@]2(CC1)C(/C=C/CC1CCCC1)=Cc1ccccc12 [Example 152, (1r,4r)-4-(3-chloroanilino)-2′-[(1E)-3-cyclopentylprop-1-en-1-yl]spiro[cyclohexane-1,1′-indene]-4-carboxylic acid]",0.609 µM
13,"O=C(O)[C@]1(Nc2cc(Cl)cc(Cl)c2)CC[C@@]2(CCCc3ccccc32)CC1 [Example 120, (1r,4s)-4-[(3,5-dichlorophenyl)amino]-3′,4′-dihydro-2′H-spiro[cyclohexane-1,1′-naphthalene]-4-carboxylic acid]",19.3 µM
14,"O=C(O)C1(Nc2cccc(Br)c2)CCC2(CC1)C(=O)N1CCCc3cc(Br)cc2c31 (single isomer, unassigned) [Example 14, 8′-bromo-4-(3-bromoanilino)-2′-oxo-5′,6′-dihydro-2′H,4′H-spiro[cyclohexane-1,1′-pyrrolo[3,2,1-ij]quinoline]-4-carboxylic acid]",5.2 µM
15,"CC1N(C)c2ccccc2[C@]12CC[C@](Nc1cccc(Br)c1)(C(=O)O)CC2 (stereo partly shown) [Example 23, (1r,4r)-4-(3-bromoanilino)-1′,2′-dimethyl-1′,2′-dihydrospiro[cyclohexane-1,3′-indole]-4-carboxylic acid]",1.08 µM
